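GI50: concentration for 50% inhibition of growth. At the TGI there is no net growth.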
Legend:
Assay in all cases: NCI anticancer screen, dose series, 384-well format
786-0 renal = tested on: 786-0 renal
HCT-15 colon = tested on: HCT-15 colon
NCI/ADR-RES ovarian = tested on: NCI/ADR-RES ovarian
SK-OV-3 ovarian = tested on: SK-OV-3 ovarian
HS 578T breast = tested on: HS 578T breast
UACC-257 melanoma = tested on: UACC-257 melanoma
A549 NSCLC = tested on: A549 NSCLC
SF-268 CNS = tested on: SF-268 CNS
HOP-62 NSCLC = tested on: HOP-62 NSCLC
K-562 leukemia = tested on: K-562 leukemia
A498 renal = tested on: A498 renal
NCI-H322M lung = tested on: NCI-H322M lung
HT29 colon = tested on: HT29 colon
MOLT-4 leukemia = tested on: MOLT-4 leukemia
SK-MEL-2 melanoma = tested on: SK-MEL-2 melanoma
SF-295 CNS = tested on: SF-295 CNS
HOP-92 NSCLC = tested on: HOP-92 NSCLC
CAKI-1 renal = tested on: CAKI-1 renal
COLO 205 colon = tested on: COLO 205 colon
NCI-H23 lung = tested on: NCI-H23 lung
SF-539 CNS = tested on: SF-539 CNS
BT-549 breast = tested on: BT-549 breast
UACC-62 melanoma = tested on: UACC-62 melanoma
HCT-116 colon = tested on: HCT-116 colon
MDA-MB-435 melanoma = tested on: MDA-MB-435 melanoma
EKVX NSCLC = tested on: EKVX NSCLC
MALME-3M melanoma = tested on: MALME-3M melanoma
KM12 colon = tested on: KM12 colon
RPMI-8226 leukemia = tested on: RPMI-8226 leukemia
PC-3 prostate = tested on: PC-3 prostate
CCRF-CEM leukemia = tested on: CCRF-CEM leukemia
SNB-75 CNS = tested on: SNB-75 CNS
OVCAR-3 ovarian = tested on: OVCAR-3 ovarian
DU-145 prostate = tested on: DU-145 prostate
NCI-H460 NSCLC = tested on: NCI-H460 NSCLC
MDA-MB-468 breast = tested on: MDA-MB-468 breast
ACHN renal = tested on: ACHN renal
SNB-19 CNS = tested on: SNB-19 CNS
OVCAR-8 ovarian = tested on: OVCAR-8 ovarian
MCF7 breast = tested on: MCF7 breast
TK-10 renal = tested on: TK-10 renal
SK-MEL-28 melanoma = tested on: SK-MEL-28 melanoma
SK-MEL-5 melanoma = tested on: SK-MEL-5 melanoma
OVCAR-4 ovarian = tested on: OVCAR-4 ovarian
LOX IMVI melanoma = tested on: LOX IMVI melanoma
NCI-H522 lung = tested on: NCI-H522 lung
M14 melanoma = tested on: M14 melanoma
SN12C renal = tested on: SN12C renal
RXF 393 renal = tested on: RXF 393 renal
HL-60(TB) leukemia = tested on: HL-60(TB) leukemia
U251 glioblastoma = tested on: U251 glioblastoma
NCI-H226 lung = tested on: NCI-H226 lung
IGROV1 ovarian = tested on: IGROV1 ovarian
SW-620 colon = tested on: SW-620 colon

CCCOC(=O)c1nc(N(CC2CCCCC2)C(=O)NC)sc1/N=C/c1ccccc1
GI50 ([…]-0 renal): 6.22 µM
TGI (786-0 renal): 18.7 µM
GI50 (HCT-15 colon): 2830 nM
TGI (HCT-15 colon): 8.63 µM
GI50 (NCI/ADR-RES ovarian): 2510 nM
TGI (NCI/ADR-RES ovarian): 8.09 µM
GI50 (SK-OV-3 ovarian): 3.49 µM
TGI (SK-OV-3 ovarian): 14.7 µM
GI50 (HS 578T breast): 2220 nM
TGI (HS 578T breast): 5.66 µM
GI50 (UACC-257 melanoma): 7.33 µM
TGI (UACC-257 melanoma): 29.1 µM
GI50 (A549 NSCLC): 9.71 µM
TGI (A549 NSCLC): 22 µM
GI50 (SF-268 CNS): 5.35 µM
TGI (SF-268 CNS): 15.5 µM
GI50 (HOP-62 NSCLC): 2450 nM
TGI (HOP-62 NSCLC): 7.26 µM
GI50 (K-562 leukemia): 3.37 µM
TGI (K-562 leukemia): 10.7 µM
GI50 (A498 renal): 4.1 µM
TGI (A498 renal): 14.7 µM
GI50 (NCI-H322M lung): 31.3 µM
TGI (NCI-H322M lung): > 100 µM
GI50 (HT29 colon): 2580 nM
TGI (HT29 colon): 6.98 µM
GI50 (MOLT-4 leukemia): 1760 nM
TGI (MOLT-4 leukemia): 3.2 µM
GI50 (SK-MEL-2 melanoma): 2340 nM
TGI (SK-MEL-2 melanoma): 4.27 µM
GI50 (SF-295 CNS): 2160 nM
TGI (SF-295 CNS): 5.51 µM
GI50 (HOP-92 NSCLC): 4.36 µM
TGI (HOP-92 NSCLC): 14.6 µM
GI50 (CAKI-1 renal): 5.18 µM
TGI (CAKI-1 renal): 18.1 µM
GI50 (COLO 205 colon): 4.56 µM
TGI (COLO 205 colon): 16.1 µM
GI50 (NCI-H23 lung): 3.39 µM
TGI (NCI-H23 lung): 11.4 µM
GI50 (SF-539 CNS): 4.85 µM
TGI (SF-539 CNS): 16.6 µM
GI50 (BT-549 breast): 4.02 µM
TGI (BT-549 breast): 12.4 µM
GI50 (UACC-62 melanoma): 3.48 µM
TGI (UACC-62 melanoma): 14 µM
GI50 (HCT-116 colon): 3.2 µM
TGI (HCT-116 colon): 9.48 µM
GI50 (MDA-MB-435 melanoma): 1790 nM
TGI (MDA-MB-435 melanoma): 4.03 µM
GI50 (EKVX NSCLC): 8.12 µM
TGI (EKVX NSCLC): 20.7 µM
GI50 (MALME-3M melanoma): 3.51 µM
TGI (MALME-3M melanoma): 9.53 µM
GI50 (KM12 colon): 3.26 µM
TGI (KM12 colon): 11.8 µM
GI50 (RPMI-8226 leukemia): 1610 nM
TGI (RPMI-8226 leukemia): 3.22 µM
GI50 (PC-3 prostate): 3.58 µM
TGI (PC-3 prostate): 12.8 µM
GI50 (CCRF-CEM leukemia): 2030 nM
TGI (CCRF-CEM leukemia): 3.76 µM
GI50 (SNB-75 CNS): 2550 nM
TGI (SNB-75 CNS): 7.92 µM
GI50 (OVCAR-3 ovarian): 2010 nM
TGI (OVCAR-3 ovarian): 4.27 µM
GI50 (DU-145 prostate): 12.3 µM
TGI (DU-145 prostate): 27.5 µM
GI50 (NCI-H460 NSCLC): 2560 nM
TGI (NCI-H460 NSCLC): 6.26 µM
GI50 (MDA-MB-468 breast): 2130 nM
TGI (MDA-MB-468 breast): 4.05 µM
GI50 (ACHN renal): 9.87 µM
TGI (ACHN renal): 21.9 µM
GI50 (SNB-19 CNS): 5.73 µM
TGI (SNB-19 CNS): 17.4 µM
GI50 (OVCAR-8 ovarian): 10.7 µM
TGI (OVCAR-8 ovarian): 23.1 µM
GI50 (MCF7 breast): 2660 nM
TGI (MCF7 breast): 7.98 µM
GI50 (TK-10 renal): 8.53 µM
TGI (TK-10 renal): 21.8 µM
GI50 (SK-MEL-28 melanoma): 5.74 µM
TGI (SK-MEL-28 melanoma): 16.9 µM
GI50 (SK-MEL-5 melanoma): 2430 nM
TGI (SK-MEL-5 melanoma): 11.3 µM
GI50 (OVCAR-4 ovarian): 2740 nM
TGI (OVCAR-4 ovarian): 12.5 µM
GI50 (LOX IMVI melanoma): 3.83 µM
TGI (LOX IMVI melanoma): 11.3 µM
GI50 (NCI-H522 lung): 1800 nM
TGI (NCI-H522 lung): 5.05 µM
GI50 (M14 melanoma): 3.46 µM
TGI (M14 melanoma): 10.9 µM
GI50 (SN12C renal): 6.86 µM
TGI (SN12C renal): 19.6 µM
GI50 (RXF 393 renal): 2650 nM
TGI (RXF 393 renal): 5.99 µM
GI50 (HL-60(TB) leukemia): 1730 nM
TGI (HL-60(TB) leukemia): 3.11 µM
GI50 (U251 glioblastoma): 7.26 µM
TGI (U251 glioblastoma): 21.2 µM
GI50 (NCI-H226 lung): 5.1 µM
TGI (NCI-H226 lung): 18.1 µM
GI50 (IGROV1 ovarian): 3.71 µM
TGI (IGROV1 ovarian): 14.4 µM
GI50 (SW-620 colon): 3.5 µM
TGI (SW-620 colon): 13.5 µM

Reference: PubChem BioAssay (NCI)
